Literature values, collected in patent US10786531B2, “Mineral salt-sulfonic acid compositions and methods of use” (BMG PHARMA SPA, priority 2009, dated 2020).
Like-named read-outs stand apart in the source and are kept apart here.

Columns and labels:
[1] = solutions of 0.2-1%

For `CC(=O)[O-].CC(=O)[O-].[Zn+2]` [zinc acetate], the dermal irritancy (dermal abrasion; 20% aqueous) is given as “slightly less irritant”.

For `[Cl-].[Cl-].[Zn+2]` [zinc chloride], the dermal irritancy (dermal abrasion; 1% aqueous) is given as “severe irritant”.

For `[O]=[Zn]` [zinc oxide], the dermal irritancy (dermal abrasion; 20% suspension) is listed as “not overtly irritant”.

In the case of `O=S(=O)([O-])[O-].[Zn+2]` [zinc sulfate], the dermal irritancy (dermal abrasion; 1% aqueous) is given as “not overtly irritant” and the “irritation when applied circumorally” value [1] is given as “severe irritation”.

For zinc pyrithione, the dermal irritancy (dermal abrasion; 20% suspension) is listed as “not overtly irritant”.
